From US10501516B2, “Peptide compound” (TAKEDA PHARMACEUTICAL COMPANY LIMITED, priority 2016, dated 2019)
Square brackets hold non-standard residues; d marks the D form. Side chains are listed from the residue outwards. Peptide text beside a SMILES is read from it. * marks the point of attachment. C18 diacid = O=C(O)CCCCCCCCCCCCCCCCC(=O)*; NMeY = CN[C@@H](Cc1ccc(O)cc1)C(=O)O; Palmitoyl = CCCCCCCCCCCCCCCC(=O)*; αMeF = C[C@](N)(Cc1ccccc1)C(=O)O; Iva = CC[C@](C)(N)C(=O)O; Aib = CC(C)(N)C(=O)O

Columns and labels:
human GIPR = target: T1, human GIPR (Homo sapiens, UniProt P48546); assay: Reporter assay of human GIPR gene (agonist activity, intracellular cAMP as index); format: cell-based; details: Cre-luc reporter, hGIPR/CHO-K1 cells, 4 hours
T1 construct: expressed in transfected cells; host or cells: CHO-K1 Cre-luc reporter cells (hGIPR/CHO-K1, also called hGIPR/CRE-LUC/CHO-K1)
T1 sequence (P48546 22-466): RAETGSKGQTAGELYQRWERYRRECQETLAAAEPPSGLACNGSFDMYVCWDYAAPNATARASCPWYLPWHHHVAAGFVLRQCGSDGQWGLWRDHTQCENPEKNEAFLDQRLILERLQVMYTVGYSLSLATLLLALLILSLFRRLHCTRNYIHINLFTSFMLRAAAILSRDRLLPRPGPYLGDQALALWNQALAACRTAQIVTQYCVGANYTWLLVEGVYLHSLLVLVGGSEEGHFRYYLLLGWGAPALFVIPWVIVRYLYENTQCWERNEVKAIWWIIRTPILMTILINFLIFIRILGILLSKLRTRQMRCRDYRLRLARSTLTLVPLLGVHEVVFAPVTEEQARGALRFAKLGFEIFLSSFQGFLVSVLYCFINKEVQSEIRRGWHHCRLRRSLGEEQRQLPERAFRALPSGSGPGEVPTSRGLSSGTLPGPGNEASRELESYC
Text: Evaluation of Agonist Activity Against Human NPY2R, Human GIPR, and Human GLP-1R Using Change in Intracellular cAMP Concentration as Index
The human GIPR gene having a sequence identical to the sequence of GenBank Accession No. U39231 was cloned into pMSRα-neo vector to prepare hGIPR/pMSRα-neo. This vector was introduced to the Cre-luc reporter cells obtained in (1) to obtain transformants. Next, a cell line induced to express luciferase, i.e., hGIPR/CHO-K1 cells, were selected from the obtained transformants by the addition of GIP.
The hGIPR/CRE-LUC/CHO-K1 cells or the hGLP-1R/Crel cells were inoculated at a cell density of 25 μL/well (5,000 cells/well) to a 384-well white plate (Corning, 3570), and cultured overnight in Ham F12 medium containing 10% fetal bovine serum, 100 U/mL penicillin and 100 μg/mL streptomycin in a CO2 incubator of 37° C. On the next day, a medium containing a test compound was added at a concentration of 5 μL/well to the cells, and the resultant cells were incubated for 4 hours in a CO2 incubator of 37° C. to give the final concentration of 1 μM. SteadyGlo (Promega) was added thereto at a concentration of 30 μL/well, and the mixture was shaken with light shielded. After 30 minutes, the luciferase activity was measured using a plate reader Envision (PerkinElmer). For the GIPR agonist activity, the luciferase activity in the presence of 10 μM GIP was defined as 100%, and the luciferase activity from the addition of DMSO instead of the test compound was defined as 0%. The GIPR agonist activity was calculated with a rise in intracellular cAMP concentration as an index.

male C57BL/6J mouse = assay: Evaluation of feeding suppressive action in mice; format: in vivo; details: 30 nmol/kg s.c. once a day for 3 days; 3-days cumulative food consumption vs solvent control
Method: The feeding suppressive activity of a test compound was examined by the method described below.
The test compound was dissolved at a concentration of 30 or 100 nmol/2 mL in a solvent (10% DMSO-containing physiological saline). The test compound solution was subcutaneously administered at a dose of 2 mL/kg to the back of each male C57BL/6J mouse at 8-9 weeks of age (20-26° C., allowed to take food and water ad libitum; raised in the 12-hour bright-12-hour dark cycle). The administration was performed once a day for 3 days. After the administration, the mouse was individually raised in a rearing cage, and given previously weighed food; food consumption for 3 days after the start of administration was measured. The food consumption was calculated by subtracting the amount of remaining food from the weight of the food given on the day of the start of administration. When the food consumption of a control group receiving administration of the solvent alone was regarded as a suppression rate of 0%, the feeding suppressive activity of each test compound was evaluated on the basis of 3-days cumulative food consumption after the start of administration. The food intake suppression rate (%) of the test compound was defined as (Food consumption of the control group−Food consumption of the test compound-administered group)/Food consumption of the control group×100.

Structure (SMILES)	EC50 (human GIPR) [nM]	Rate of feeding suppression (%) (male C57BL/6J mouse)
CC[C@H](C)[C@H](NC(=O)[C@H](C)NC(=O)[C@H](CCCCNC(=O)CNC(=O)CNC(=O)CNC(=O)CNC(=O)CCCCCCCCCCCCCCCCC(=O)O)NC(=O)[C@H](CC(=O)O)NC(=O)[C@H](CO)NC(=O)[C@@H](NC(=O)[C@](C)(Cc1ccccc1)NC(=O)[C@@H](NC(=O)CNC(=O)[C@H](CCC(=O)O)NC(=O)C(C)(C)NC(=O)[C@H](Cc1ccc(O)cc1)NC)[C@@H](C)O)[C@@H](C)O)C(=O)NC(C)(C)C(=O)N[C@@H](CC(C)C)C(=O)N[C@@H](CC(=O)O)C(=O)N[C@@H](CCCCN)C(=O)N[C@@H](CCC(N)=O)C(=O)N[C@@H](CCCNC(=N)N)C(=O)N[C@@H](CCC(N)=O)C(=O)N[C@@](C)(CC)C(=O)N[C@@H](CCC(=O)O)C(=O)N[C@@H](Cc1ccccc1)C(=O)N[C@H](C(=O)N[C@@H](CCCNC(=N)N)C(=O)N[C@@H](Cc1c[nH]cn1)C(=O)N[C@@H](CC(C)C)C(=O)N[C@@H](CC(C)C)C(=O)N[C@@H](CC(N)=O)C(=O)N[C@@H](CCCCN)C(=O)NC(C)(C)C(=O)N[C@H](C(=O)N[C@@H](CCCNC(=N)N)C(=O)N[C@@H](CCC(N)=O)C(=O)N[C@@H](CCCNC(=N)N)C(=O)N[C@@H](Cc1ccc(O)cc1)C(N)=O)[C@@H](C)O)C(C)C [Example 14] (H-[NMeY][Aib]EGT[αMeF]TSDK([Gly-Gly-Gly-Gly-C18 diacid])AI[Aib]LDKQRQ[Iva]EFVRHLLNK[Aib]TRQRY-NH2)	0.17	–
CCCCCCCCCCCCCCCC(=O)NCC(=O)NCC(=O)NCC(=O)NCC(=O)NCCCC[C@H](NC(=O)[C@H](CC(=O)O)NC(=O)[C@H](CO)NC(=O)[C@@H](NC(=O)[C@](C)(Cc1ccccc1)NC(=O)[C@@H](NC(=O)CNC(=O)[C@H](CCC(=O)O)NC(=O)C(C)(C)NC(=O)[C@@H](N)Cc1ccc(O)cc1)[C@@H](C)O)[C@@H](C)O)C(=O)NC(C)(C)C(=O)N[C@@H](CCCCN)C(=O)NC(C)(C)C(=O)N[C@@H](CC(C)C)C(=O)N[C@@H](CC(=O)O)C(=O)N[C@@H](CCCCN)C(=O)N[C@@H](CCC(N)=O)C(=O)N[C@@H](CCCNC(=N)N)C(=O)N[C@@H](CCC(N)=O)C(=O)N[C@@](C)(CC)C(=O)N[C@@H](CCC(=O)O)C(=O)N[C@@H](Cc1ccccc1)C(=O)N[C@H](C(=O)N[C@@H](CCCNC(=N)N)C(=O)N[C@@H](Cc1c[nH]cn1)C(=O)N[C@@H](CC(C)C)C(=O)N[C@@H](CC(C)C)C(=O)N[C@@H](CC(N)=O)C(=O)N[C@@H](CCCCN)C(=O)NC(C)(C)C(=O)N[C@H](C(=O)N[C@@H](CCCNC(=N)N)C(=O)N[C@@H](CCC(N)=O)C(=O)N[C@@H](CCCNC(=N)N)C(=O)N[C@@H](Cc1ccc(O)cc1)C(N)=O)[C@@H](C)O)C(C)C [Example 19] (H-Y[Aib]EGT[αMeF]TSDK([Gly-Gly-Gly-Gly-Palmitoyl])[Aib]K[Aib]LDKQRQ[Iva]EFVRHLLNK[Aib]TRQRY-NH2)	–	−37.0
CCCCCCCCCCCCCCCC(=O)NCC(=O)NCC(=O)NCC(=O)NCC(=O)NCCCC[C@H](NC(=O)[C@H](CC(=O)O)NC(=O)[C@H](CO)NC(=O)[C@@H](NC(=O)[C@](C)(Cc1ccccc1)NC(=O)[C@@H](NC(=O)CNC(=O)[C@H](CCC(=O)O)NC(=O)C(C)(C)NC(=O)[C@H](Cc1ccc(O)cc1)NC)[C@@H](C)O)[C@@H](C)O)C(=O)NC(C)(C)C(=O)N[C@H](C(=O)NC(C)(C)C(=O)N[C@@H](CC(C)C)C(=O)N[C@@H](CC(=O)O)C(=O)N[C@@H](CCCCN)C(=O)N[C@@H](CCC(N)=O)C(=O)N[C@@H](C)C(=O)N[C@@H](CCC(N)=O)C(=O)N[C@@](C)(CC)C(=O)N[C@@H](CCC(=O)O)C(=O)N[C@@H](Cc1ccccc1)C(=O)N[C@H](C(=O)N[C@@H](CCCNC(=N)N)C(=O)N[C@@H](Cc1c[nH]cn1)C(=O)N[C@@H](CC(C)C)C(=O)N[C@@H](CC(C)C)C(=O)N[C@@H](CC(N)=O)C(=O)N[C@@H](CCCCN)C(=O)NC(C)(C)C(=O)N[C@H](C(=O)N[C@@H](CCCNC(=N)N)C(=O)N[C@@H](CCC(N)=O)C(=O)N[C@@H](CCCNC(=N)N)C(=O)N[C@@H](Cc1ccc(O)cc1)C(N)=O)[C@@H](C)O)C(C)C)[C@@H](C)CC [Example 29] (H-[NMeY][Aib]EGT[αMeF]TSDK([Gly-Gly-Gly-Gly-Palmitoyl])[Aib]I[Aib]LDKQAQ[Iva]EFVRHLLNK[Aib]TRQRY-NH2)	–	−43.7
CCCCCCCCCCCCCCCC(=O)NCC(=O)NCC(=O)NCC(=O)NCC(=O)NCCCC[C@H](NC(=O)[C@H](CC(=O)O)NC(=O)[C@H](CO)NC(=O)[C@@H](NC(=O)[C@](C)(Cc1ccccc1)NC(=O)[C@@H](NC(=O)CNC(=O)[C@H](CCC(=O)O)NC(=O)C(C)(C)NC(=O)[C@H](Cc1ccc(O)cc1)NC)[C@@H](C)O)[C@@H](C)O)C(=O)N[C@@H](C)C(=O)N[C@H](C(=O)NC(C)(C)C(=O)N[C@@H](CC(C)C)C(=O)N[C@@H](CCC(=O)O)C(=O)N[C@@H](CCCCN)C(=O)N[C@@H](CCC(N)=O)C(=O)N[C@@H](CCCNC(=N)N)C(=O)N[C@@H](CCC(N)=O)C(=O)N[C@@](C)(CC)C(=O)N[C@@H](CCC(=O)O)C(=O)N[C@@H](Cc1ccccc1)C(=O)N[C@H](C(=O)N[C@@H](CCCNC(=N)N)C(=O)N[C@@H](Cc1c[nH]cn1)C(=O)N[C@@H](CC(C)C)C(=O)N[C@@H](CC(C)C)C(=O)N[C@@H](CC(N)=O)C(=O)N[C@@H](CCCCN)C(=O)NC(C)(C)C(=O)N[C@H](C(=O)N[C@@H](CCCNC(=N)N)C(=O)N[C@@H](CCC(N)=O)C(=O)N[C@@H](CCCNC(=N)N)C(=O)N[C@@H](Cc1ccc(O)cc1)C(N)=O)[C@@H](C)O)C(C)C)[C@@H](C)CC [Example 37] (H-[NMeY][Aib]EGT[αMeF]TSDK([Gly-Gly-Gly-Gly-Palmitoyl])AI[Aib]LEKQRQ[Iva]EFVRHLLNK[Aib]TRQRY-NH2)	–	−54.9
CCCCCCCCCCCCCCCC(=O)NCC(=O)NCC(=O)NCC(=O)NCC(=O)NCCCC[C@H](NC(=O)[C@H](CC(=O)O)NC(=O)[C@H](CO)NC(=O)[C@@H](NC(=O)[C@](C)(Cc1ccccc1)NC(=O)[C@@H](NC(=O)CNC(=O)[C@H](CCC(=O)O)NC(=O)C(C)(C)NC(=O)[C@@H](N)Cc1ccc(O)cc1)[C@@H](C)O)[C@@H](C)O)C(=O)NC(C)(C)C(=O)N[C@H](C(=O)NC(C)(C)C(=O)N[C@@H](CC(C)C)C(=O)N[C@@H](CCC(=O)O)C(=O)N[C@@H](CCCCN)C(=O)N[C@@H](CCC(N)=O)C(=O)N[C@@H](CCCNC(=N)N)C(=O)N[C@@H](CCC(N)=O)C(=O)N[C@@](C)(CC)C(=O)N[C@@H](CCC(=O)O)C(=O)N[C@@H](Cc1ccccc1)C(=O)N[C@H](C(=O)N[C@@H](CCCNC(=N)N)C(=O)N[C@@H](Cc1c[nH]cn1)C(=O)N[C@@H](CC(C)C)C(=O)N[C@@H](CC(C)C)C(=O)N[C@@H](CC(N)=O)C(=O)N[C@@H](CCCCN)C(=O)NC(C)(C)C(=O)N[C@H](C(=O)N[C@@H](CCCNC(=N)N)C(=O)N[C@@H](CCC(N)=O)C(=O)N[C@@H](CCCNC(=N)N)C(=O)N[C@@H](Cc1ccc(O)cc1)C(N)=O)[C@@H](C)O)C(C)C)[C@@H](C)CC [Example 31] (H-Y[Aib]EGT[αMeF]TSDK([Gly-Gly-Gly-Gly-Palmitoyl])[Aib]I[Aib]LEKQRQ[Iva]EFVRHLLNK[Aib]TRQRY-NH2)	–	−56.8
